Source: article PMC5923123, “In Vitro and In Vivo Efficacy of a Novel and Long-Acting Fungicidal Azole, PC1244, on Aspergillus fumigatus Infection” (Antimicrobial Agents and Chemotherapy, 2018)
Values after ≈ are worked out from the molar mass of the structure shown.

How the values were obtained:
[1] = test system: sterol composition of A. fumigatus (NCPF2010); assay: A. fumigatus sterol analysis (GC-MS); format: cell-based, Aspergillus fumigatus; settings: 2 h
[2] = test system: A. fumigatus (ATCC 13073 [strain NIH 5233]); assay: MIC against the strain used in vivo; format: cell-based; settings: Aspergillus fumigatus, ATCC13073; strain ATCC 13073; read-out: MIC
[3] = test system: A. fumigatus (ATCC 13073 [strain NIH 5233]); assay: In vivo antifungal activity, late intervention (intranasal, days 1-3 postinfection), temporarily neutropenic mice
[4] = test system: Aspergillus carbonarius (ATCC 8740); assay: CLSI MIC; format: cell-based; settings: ATCC8740, CLSI, 1 strain, read-out: MIC
[5] = test system: Aspergillus flavus (AFL8, NRRC3357); assay: EUCAST MIC; format: cell-based; settings: EUCAST, 2 strains, mean MIC, read-out: MIC
[6] = test system: Aspergillus niger (ATCC 1015); assay: EUCAST MIC; format: cell-based; settings: ATCC1015, EUCAST, 1 strain, read-out: MIC
[7] = test system: Aspergillus terreus (AT49, AT7130); assay: EUCAST MIC; format: cell-based; settings: EUCAST, 2 strains, mean MIC, read-out: MIC
[8] = test system: Penicillium citrinum (ATCC 9849); assay: CLSI MIC; format: cell-based; settings: ATCC9849, 1 strain
[9] = test system: Candida albicans (20240.047, ATCC 10231); assay: CLSI MIC; format: cell-based; settings: ATCC10231, CLSI, 2 strains, mean MIC, MIC = 50% inhibition of fungal growth, read-out: MIC
[10] = test system: Candida krusei (ATCC 6258); assay: CLSI MIC; format: cell-based; settings: Pichia kudriavzevii, ATCC6258; CLSI; 1 strain; read-out: MIC
[11] = test system: Candida parapsilosis (ATCC 22019); assay: CLSI MIC; format: cell-based; settings: ATCC22019, 1 strain, MIC = 50% inhibition of fungal growth
[12] = test system: Gibberella zeae(Fusarium graminearum) (ATCC 16106); assay: microbe, parasite or virus in culture; format: cell-based; settings: ATCC16106
[13] = test system: Cryptococcus gattii (clinical isolate); assay: EUCAST MIC (EDef 7.2); format: cell-based; settings: 1 strain
[14] = test system: Rhizomucor pusillus (ATCC 16458); assay: CLSI MIC; format: cell-based; settings: ATCC16458, 1 strain
23 pathogenic fungi = format: cell-based; settings: broad spectrum of pathogenic fungi
[15] = in vivo
in vivo = settings: mouse
A. fumigatus CYP51A = A. fumigatus CYP51A (Aspergillus fumigatus, UniProt Q4WNT5); assay: CYP51 reconstitution assay (sterol 14α-demethylase inhibition)
Protocol: (§1) The test agent was added to a mixture of 0.5 μM CYP51, 1 μM A. fumigatus cytochrome P450 reductase isoenzyme 1 (AfCPR1), 50 μM eburicol, 4% (wt/vol) 2-hydroxypropyl-β-cyclodextrin, 0.4 mg/ml isocitrate dehydrogenase, 25 mM trisodium isocitrate, 50 mM NaCl, 5 mM MgCl2, and 40 mM 3-(N-morpholino) propanesulfonic acid (MOPS; pH of ∼7.2). The mixtures were then incubated at 37°C for 10 min prior to initiation with 4 mM β-NADPHNa4, followed by shaking for 20 min at 37°C. Sterol metabolites were recovered by extraction with ethyl acetate followed by derivatization with 0.1 ml N,O-bis(trimethylsilyl)trifluoroacetamide: trimethylchlorosilane (99:1) and 0.3 ml anhydrous pyridine prior to analysis by gas chromatography-mass spectrometry.

A. fumigatus CYP51B = A. fumigatus CYP51B (Aspergillus fumigatus, UniProt E9QY26); assay: as above
Protocol: as §1

[16] = test system: A. fumigatus (ATCC 13073 [strain NIH 5233]); assay: In vivo extended prophylaxis (intranasal, days -7 to 0) in infected immunocompromised mice; settings: 0.0032 mg/ml (0.11 μg/mouse), compared to late intervention at the same dose
Protocol: The test agents, suspended in physiological saline, were administered intranasally (35 μl, approximately 17.5 μl each in each nostril) once daily on days 1, 2, and 3 postinfection. […] As the injection volume was fixed and the body weight changed every day, especially after infection, the accurate dose unit was the number of micrograms per mouse. However, as the average body weight after immunosuppression and just before infection was 20 g, we also calculated the estimated dose in milligrams per kilogram.

[17] = test system: A. fumigatus (ATCC 13073); assay: In vivo persistence of action: single intranasal prophylactic dose 16 h before inoculation; settings: PC1244 0.4 mg/ml, POS 0.8 mg/ml intranasal 16 h before inoculation; lungs 8 h after

Chain of A. fumigatus CYP51A (Q4WNT5 whole entry): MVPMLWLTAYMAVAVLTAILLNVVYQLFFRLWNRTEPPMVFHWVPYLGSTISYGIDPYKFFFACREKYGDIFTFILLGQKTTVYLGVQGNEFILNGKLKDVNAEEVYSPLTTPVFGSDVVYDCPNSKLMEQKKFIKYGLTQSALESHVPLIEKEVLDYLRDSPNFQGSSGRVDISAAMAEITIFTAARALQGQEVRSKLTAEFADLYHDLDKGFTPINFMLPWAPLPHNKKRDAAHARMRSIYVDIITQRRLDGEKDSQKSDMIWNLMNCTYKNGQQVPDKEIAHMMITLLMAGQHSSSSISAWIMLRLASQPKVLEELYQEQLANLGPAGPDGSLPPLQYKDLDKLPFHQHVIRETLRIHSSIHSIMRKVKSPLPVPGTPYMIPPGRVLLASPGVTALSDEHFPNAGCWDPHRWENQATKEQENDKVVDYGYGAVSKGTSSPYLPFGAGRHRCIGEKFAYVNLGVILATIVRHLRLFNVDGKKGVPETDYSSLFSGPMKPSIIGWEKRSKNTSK
Chain of A. fumigatus CYP51B (E9QY26 whole entry): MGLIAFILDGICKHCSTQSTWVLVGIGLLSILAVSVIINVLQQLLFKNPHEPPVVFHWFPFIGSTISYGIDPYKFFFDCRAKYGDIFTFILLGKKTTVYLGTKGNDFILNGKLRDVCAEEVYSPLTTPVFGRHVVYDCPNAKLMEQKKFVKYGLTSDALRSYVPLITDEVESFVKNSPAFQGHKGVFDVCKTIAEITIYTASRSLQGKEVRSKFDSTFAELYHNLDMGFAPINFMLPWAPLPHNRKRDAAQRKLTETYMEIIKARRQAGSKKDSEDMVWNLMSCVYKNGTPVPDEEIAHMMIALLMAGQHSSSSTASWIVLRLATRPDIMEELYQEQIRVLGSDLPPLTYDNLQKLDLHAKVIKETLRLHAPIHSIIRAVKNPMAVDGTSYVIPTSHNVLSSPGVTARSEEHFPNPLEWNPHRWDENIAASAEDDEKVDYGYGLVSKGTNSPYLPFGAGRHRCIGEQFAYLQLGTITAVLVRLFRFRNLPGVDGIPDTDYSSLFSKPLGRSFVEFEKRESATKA

Structure (SMILES): Cc1cc(N2CCN(c3ccc(C(=O)N[C@H]4CCCC[C@@H]4O)cc3)CC2)ccc1OC[C@@H]1CO[C@@](Cn2cncn2)(c2ccc(F)cc2F)C1 [PC1244, 4-(4-(4-(((3R,5R)-5-((1H-1,2,4-triazol-1-yl)methyl)-5-(2,4-difluorophenyl)tetrahydrofuran-3-yl)methoxy)-3-methylphenyl)piperazin-1-yl)-N-((1S,2S)-2-hydroxycyclohexyl)benzamide]
- Sterol composition: Eburicol ([1]; compound at 0.0001 μg/ml): 2.5 ± 1.1%
- Sterol composition: Ergost-5,7-dienol ([1]; compound at 0.0001 μg/ml): 4.6 ± 1.8%
- Sterol composition: Ergosterol ([1]; compound at 0.0001 μg/ml): 91.3 ± 0.1%
- Sterol composition: Lanosterol ([1]; compound at 0.0001 μg/ml): 1.7 ± 0.7%
- Sterol composition: Eburicol ([1]; compound at 0.001 μg/ml): 3.4 ± 1.2%
- Sterol composition: Ergost-5,7-dienol ([1]; compound at 0.001 μg/ml): 4.6 ± 0.8%
- Sterol composition: Ergosterol ([1]; compound at 0.001 μg/ml): 89.2 ± 0.2%
- Sterol composition: Lanosterol ([1]; compound at 0.001 μg/ml): 2.8 ± 0.6%
- Sterol composition: Eburicol ([1]; compound at 0.01 μg/ml): 14.7 ± 1.5%
- Sterol composition: Ergost-5,7-dienol ([1]; compound at 0.01 μg/ml): 0%
- Sterol composition: Ergosterol ([1]; compound at 0.01 μg/ml): 76.8 ± 2.6%
- Sterol composition: Lanosterol ([1]; compound at 0.01 μg/ml): 8.5 ± 1.1%
- Sterol composition: Eburicol ([1]; compound at 0.1 μg/ml): 26.7 ± 0.8%
- Sterol composition: Ergost-5,7-dienol ([1]; compound at 0.1 μg/ml): 0%
- Sterol composition: Ergosterol ([1]; compound at 0.1 μg/ml): 61.0 ± 1.6%
- Sterol composition: Lanosterol ([1]; compound at 0.1 μg/ml): 12.3 ± 0.8%
- Sterol composition: Eburicol ([1]; compound at 1 μg/ml): 28.2 ± 1.3%
- Sterol composition: Ergost-5,7-dienol ([1]; compound at 1 μg/ml): 0%
- Sterol composition: Ergosterol ([1]; compound at 1 μg/ml): 58.7 ± 2.2%
- Sterol composition: Lanosterol ([1]; compound at 1 μg/ml): 13.1 ± 0.9%
- MIC [2]: 0.063 mg/L (≈ 0.0917 µM)
- inhibition of GM in serum ([3]; 0.08 mg/ml (2.8 μg/mouse) intranasal once daily days 1-3): 82%
- inhibition of fungal load (CFU) in the lung vs vehicle ([3]; 0.08 mg/ml, 35 μl intranasal once daily days 1-3 postinfection): 97%
- CXCL1 level in BALF ([3]; infection-dependent increase): reduced
- interleukin-6 (IL-6) level in serum ([3]; infection-dependent increase): reduced
- tumor necrosis factor alpha (TNF-α) level in serum ([3]; infection-dependent increase): reduced
- ID50 (GM in BALF) fold lower than that of POS ([3]; mouse, in vivo): 6.7 fold
- A. fumigatus PCR products in lung tissue ([3]; pilot study): inhibited the accumulation of PCR products
- MIC [4]: 0.063 mg/L (≈ 0.0917 µM)
- MIC [5]: 0.38 mg/L (≈ 0.553 µM)
- MIC [6]: 0.5 mg/L (≈ 0.728 µM)
- MIC [7]: 0.38 mg/L (≈ 0.553 µM)
- MIC [8]: 0.5 mg/L (≈ 0.728 µM)
- MIC [9]: < 0.0078 mg/L
- MIC [10]: 0.13 mg/L (≈ 0.189 µM)
- MIC [11]: 0.25 mg/L (≈ 0.364 µM)
- MIC [12]: 1 mg/L (≈ 1.46 µM)
- MIC [13]: 0.5 mg/L (≈ 0.728 µM)
- MIC [14]: 2 mg/L (≈ 2.91 µM)
- MIC Range (23 pathogenic fungi): <0.0078 to 2 mg/L
- oral availability [15]: much less oral availability than posaconazole
- concentration at 2 h (in vivo): 0.111 to 0.303 µg/mL
- concentration at 8 h (in vivo): 0.249 to 0.339 µg/mL
- concentration at 24 h (in vivo): 0.0415 to 0.0507 µg/mL
- IC50 (A. fumigatus CYP51A): 0.27 µM
- Ki (A. fumigatus CYP51A): < 0.001 µM
- IC50 (A. fumigatus CYP51B): 0.23 µM
- Ki (A. fumigatus CYP51B): < 0.001 µM
- effect on fungal load and biomarkers [16]: high levels of inhibitory effects
- GM levels in the lung [17]: significant inhibition
- number of CFU in the lung [17]: significant inhibition
